Several values for one entry are separate records, joined by “and”; a condition that tells them apart may be missing. Identical values can stand only once.
How the values were obtained:
Type in all cases: in vitro ADME
Settings in all cases: for Enzyme activity, Mean: mean of Well-1 to Well-4
[1] = target: T1, CYP2D6 (Homo sapiens, UniProt P10635); assay: Metabolic assay, cocktail substrate method (bufuralol to 1’-hydroxybufuralol)
T1 construct: host or cells: PXB-cells (icHep: JFC, HUM181001B; sandwich culture: JFC)
T1 sequence (P10635 whole entry): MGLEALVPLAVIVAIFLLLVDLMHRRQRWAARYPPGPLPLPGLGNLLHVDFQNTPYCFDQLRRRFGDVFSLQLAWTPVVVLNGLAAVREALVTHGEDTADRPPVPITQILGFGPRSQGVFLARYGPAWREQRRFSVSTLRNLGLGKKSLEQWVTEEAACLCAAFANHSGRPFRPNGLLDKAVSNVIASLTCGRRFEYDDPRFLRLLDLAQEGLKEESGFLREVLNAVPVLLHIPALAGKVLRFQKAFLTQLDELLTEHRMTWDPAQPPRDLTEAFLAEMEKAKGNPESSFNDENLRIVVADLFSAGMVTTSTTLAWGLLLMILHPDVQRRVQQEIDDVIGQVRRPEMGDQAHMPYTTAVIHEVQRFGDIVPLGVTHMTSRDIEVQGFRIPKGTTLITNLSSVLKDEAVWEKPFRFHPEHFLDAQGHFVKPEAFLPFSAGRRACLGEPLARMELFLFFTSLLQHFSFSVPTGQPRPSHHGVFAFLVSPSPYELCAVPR
Experimental: (§1) The metabolic activity of icHep and sandwich-cultured PXB-cells was measured using the cocktail substrate method of drug-metabolizing enzymes. The components of the cocktail are summarized in Supplementary Table 1. Assays were initiated by treating cells with TB containing cocktail substrates. Time point of each substrate was set when a linear increase in its metabolite production was observed. Concentrations of metabolites produced in the medium were measured by liquid chromatography-mass spectrometry (LC-MS/MS).

[2] = target: T2, CYP3A4 (Homo sapiens, UniProt P08684); assay: Metabolic assay, cocktail substrate method (midazolam to 1’-hydroxymidazolam)
T2 construct: host or cells: PXB-cells (icHep: JFC, HUM181001B; sandwich culture: JFC)
T2 sequence (P08684 whole entry): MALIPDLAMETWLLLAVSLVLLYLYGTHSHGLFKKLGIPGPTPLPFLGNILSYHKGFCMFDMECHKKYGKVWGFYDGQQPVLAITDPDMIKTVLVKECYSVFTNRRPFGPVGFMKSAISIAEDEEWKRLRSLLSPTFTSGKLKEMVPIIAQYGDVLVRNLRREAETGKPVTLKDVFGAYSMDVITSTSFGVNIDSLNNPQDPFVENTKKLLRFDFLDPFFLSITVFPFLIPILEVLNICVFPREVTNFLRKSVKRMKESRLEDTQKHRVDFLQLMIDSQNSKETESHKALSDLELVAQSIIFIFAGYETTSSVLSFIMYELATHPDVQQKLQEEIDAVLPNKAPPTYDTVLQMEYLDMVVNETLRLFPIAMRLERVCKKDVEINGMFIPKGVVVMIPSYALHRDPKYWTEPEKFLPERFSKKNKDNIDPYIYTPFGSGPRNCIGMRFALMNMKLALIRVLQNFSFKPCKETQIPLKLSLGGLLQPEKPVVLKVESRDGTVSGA
Experimental: as §1

[3] = target: T3, CYP2E1 (Homo sapiens, UniProt P05181); assay: Metabolic assay, cocktail substrate method (chlorzoxazone to 6’-hydroxychlorzoxazone)
T3 construct: host or cells: PXB-cells (icHep: JFC, HUM181001B; sandwich culture: JFC)
T3 sequence (P05181 whole entry): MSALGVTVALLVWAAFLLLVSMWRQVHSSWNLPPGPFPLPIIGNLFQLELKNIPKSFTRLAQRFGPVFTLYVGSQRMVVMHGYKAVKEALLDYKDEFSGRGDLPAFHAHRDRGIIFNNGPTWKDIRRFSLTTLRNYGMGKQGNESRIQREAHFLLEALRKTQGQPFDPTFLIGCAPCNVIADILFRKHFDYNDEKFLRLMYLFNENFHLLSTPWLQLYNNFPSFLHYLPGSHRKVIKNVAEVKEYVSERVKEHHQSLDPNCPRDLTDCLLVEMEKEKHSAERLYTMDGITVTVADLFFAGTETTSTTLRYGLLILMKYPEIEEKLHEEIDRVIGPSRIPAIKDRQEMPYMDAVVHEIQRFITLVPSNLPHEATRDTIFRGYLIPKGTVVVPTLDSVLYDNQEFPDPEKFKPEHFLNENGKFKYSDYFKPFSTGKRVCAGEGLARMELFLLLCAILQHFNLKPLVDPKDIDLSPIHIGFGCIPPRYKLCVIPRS
Experimental: as §1

[4] = PXB-cells (JFC), incubation time 15 min, single wells
[5] = PXB-cells (JFC), incubation time 30 min, single wells
[6] = PXB-cells (JFC), incubation time 45 min, single wells
[7] = PXB-cells (JFC), incubation time 60 min, single wells
[8] = PXB-cells (JFC), incubation time 90 min, single wells
[9] = PXB-cells (JFC), rate per single well
[10] = icHep (HUM18100B), incubation time 15 min, single wells
[11] = icHep (HUM18100B), incubation time 30 min, single wells
[12] = icHep (HUM18100B), incubation time 45 min, single wells
[13] = icHep (HUM18100B), incubation time 60 min, single wells
[14] = icHep (HUM18100B), incubation time 90 min, single wells
[15] = icHep (HUM18100B), rate per single well
[16] = icHep (JFC), incubation time 15 min, single wells
[17] = icHep (JFC), incubation time 30 min, single wells
[18] = icHep (JFC), incubation time 45 min, single wells
[19] = icHep (JFC), incubation time 60 min, single wells
[20] = icHep (JFC), incubation time 90 min, single wells
[21] = icHep (JFC), rate per single well

With `CC(O)c1cccc2cc(C(O)CNC(C)(C)C)oc12` (centres unmarked) [1'-hydroxybufuralol] the Enzyme activity [1, 4] was 16.9358 pmol/106 cells and 20.2476 pmol/106 cells and 18.9803 pmol/106 cells and 17.4477 pmol/106 cells, the Enzyme activity [1, 5] was 29.3048 pmol/106 cells and 32.2567 pmol/106 cells and 32.3369 pmol/106 cells and 36.5879 pmol/106 cells and the Enzyme activity [1, 6] was 57.2694 pmol/106 cells and 67.3705 pmol/106 cells and 63.1354 pmol/106 cells and 57.1013 pmol/106 cells. The Enzyme activity [1, 7] was 88.7619 pmol/106 cells and 86.626 pmol/106 cells and 83.8364 pmol/106 cells and 89.8476 pmol/106 cells, the Enzyme activity [1, 8] was 79.3357 pmol/106 cells and 85.9811 pmol/106 cells and 83.3593 pmol/106 cells and 74.6468 pmol/106 cells and the “Enzyme activity, Mean” value ([1]; PXB-cells (JFC)) was 1.57 pmol/min/106 cells. For the same compound, the Enzyme activity [1, 9] was 1.62 pmol/min/106 cells and 1.56 pmol/min/106 cells and 1.50 pmol/min/106 cells and 1.58 pmol/min/106 cells, the Enzyme activity [1, 10] was 20.6578 pmol/106 cells and 24.0318 pmol/106 cells and 24.5391 pmol/106 cells and 24.1229 pmol/106 cells and the Enzyme activity [1, 11] was 38.6716 pmol/106 cells and 36.9398 pmol/106 cells and 37.9846 pmol/106 cells and 33.7885 pmol/106 cells. The Enzyme activity [1, 12] was 56.8381 pmol/106 cells and 54.0547 pmol/106 cells and 51.5492 pmol/106 cells and 53.9902 pmol/106 cells, the Enzyme activity [1, 13] was 80.7041 pmol/106 cells and 78.1674 pmol/106 cells and 75.41 pmol/106 cells and 73.212 pmol/106 cells and the Enzyme activity [1, 14] was 107.294 pmol/106 cells and 123.561 pmol/106 cells and 104.675 pmol/106 cells and 114.288 pmol/106 cells. The “Enzyme activity, Mean” value ([1]; icHep (HUM18100B)) was 1.33 pmol/min/106 cells, the Enzyme activity [1, 15] was 1.40 pmol/min/106 cells and 1.37 pmol/min/106 cells and 1.25 pmol/min/106 cells and 1.31 pmol/min/106 cells and the Enzyme activity [1, 16] was 27.4857 pmol/106 cells and 27.0951 pmol/106 cells and 24.9076 pmol/106 cells and 26.1443 pmol/106 cells. The Enzyme activity [1, 17] was 41.2873 pmol/106 cells and 33.111 pmol/106 cells and 48.4523 pmol/106 cells and 44.4518 pmol/106 cells, the Enzyme activity [1, 18] was 63.4972 pmol/106 cells and 59.7018 pmol/106 cells and 65.0037 pmol/106 cells and 67.8302 pmol/106 cells and the Enzyme activity [1, 19] was 89.1933 pmol/106 cells and 91.8156 pmol/106 cells and 102.797 pmol/106 cells and 101.548 pmol/106 cells. The Enzyme activity [1, 20] was 106.28 pmol/106 cells and 107.567 pmol/106 cells and 125.014 pmol/106 cells and 113.156 pmol/106 cells, the “Enzyme activity, Mean” value ([1]; icHep (JFC)) was 1.55 pmol/min/106 cells and the Enzyme activity [1, 21] was 1.43 pmol/min/106 cells and 1.69 pmol/min/106 cells and 1.64 pmol/min/106 cells and 1.42 pmol/min/106 cells.
`OCc1ncc2n1-c1ccc(Cl)cc1C(c1ccccc1F)=NC2` [1'-hydroxymidazolam] was tested, and the Enzyme activity [2, 4] was 85.9964 pmol/106 cells and 107.28 pmol/106 cells and 107.269 pmol/106 cells and 94.4354 pmol/106 cells, the Enzyme activity [2, 5] was 157.896 pmol/106 cells and 182.793 pmol/106 cells and 221.326 pmol/106 cells and 195.956 pmol/106 cells and the Enzyme activity [2, 6] was 229.127 pmol/106 cells and 265.395 pmol/106 cells and 205.135 pmol/106 cells and 181.378 pmol/106 cells. The Enzyme activity [2, 7] was 216.024 pmol/106 cells and 232.078 pmol/106 cells and 207.606 pmol/106 cells and 244.165 pmol/106 cells, the Enzyme activity [2, 8] was 251.177 pmol/106 cells and 288.431 pmol/106 cells and 316.537 pmol/106 cells and 214.43 pmol/106 cells and the “Enzyme activity, Mean” value ([2]; PXB-cells (JFC)) was 6.05 pmol/min/106 cells. The Enzyme activity [2, 9] was 4.79 pmol/min/106 cells and 5.03 pmol/min/106 cells and 7.60 pmol/min/106 cells and 6.77 pmol/min/106 cells, the Enzyme activity [2, 10] was 124.221 pmol/106 cells and 126.279 pmol/106 cells and 141.412 pmol/106 cells and 115.91 pmol/106 cells and the Enzyme activity [2, 11] was 259.113 pmol/106 cells and 258.447 pmol/106 cells and 251.469 pmol/106 cells and 277.435 pmol/106 cells. For the same compound, the Enzyme activity [2, 12] was 382.492 pmol/106 cells and 333.832 pmol/106 cells and 305.042 pmol/106 cells and 320.283 pmol/106 cells, the Enzyme activity [2, 13] was 439.172 pmol/106 cells and 380.966 pmol/106 cells and 417.242 pmol/106 cells and 349.083 pmol/106 cells and the Enzyme activity [2, 14] was 536.397 pmol/106 cells and 514.134 pmol/106 cells and 491.294 pmol/106 cells and 551.51 pmol/106 cells. The “Enzyme activity, Mean” value ([2]; icHep (HUM18100B)) was 8.98 pmol/min/106 cells, the Enzyme activity [2, 15] was 8.99 pmol/min/106 cells and 8.81 pmol/min/106 cells and 7.34 pmol/min/106 cells and 10.8 pmol/min/106 cells and the Enzyme activity [2, 16] was 99.4818 pmol/106 cells and 103.678 pmol/106 cells and 120.741 pmol/106 cells and 92.847 pmol/106 cells. For the same compound, the Enzyme activity [2, 17] was 252.368 pmol/106 cells and 242.904 pmol/106 cells and 185.11 pmol/106 cells and 190.476 pmol/106 cells, the Enzyme activity [2, 18] was 266.706 pmol/106 cells and 248.159 pmol/106 cells and 239.281 pmol/106 cells and 225.504 pmol/106 cells and the Enzyme activity [2, 19] was 273.171 pmol/106 cells and 272.05 pmol/106 cells and 245.256 pmol/106 cells and 275.122 pmol/106 cells. The Enzyme activity [2, 20] was 330.978 pmol/106 cells and 294.591 pmol/106 cells and 323.573 pmol/106 cells and 259.768 pmol/106 cells and the “Enzyme activity, Mean” value ([2]; icHep (JFC)) was 7.57 pmol/min/106 cells.
`O=c1[nH]c2cc(Cl)c(O)cc2o1` [6'-hydroxychlorzoxazone] was tested, and the Enzyme activity [3, 4] was 2.306 pmol/106 cells and 2.95 pmol/106 cells and 3.355 pmol/106 cells and 2.895 pmol/106 cells, the Enzyme activity [3, 5] was 5.44 pmol/106 cells and 5.421 pmol/106 cells and 6.357 pmol/106 cells and 6.2485 pmol/106 cells and the Enzyme activity [3, 6] was 6.903 pmol/106 cells and 8.029 pmol/106 cells and 8.51 pmol/106 cells and 7.254 pmol/106 cells. For the same compound, the Enzyme activity [3, 7] was 7.3761 pmol/106 cells and 7.959 pmol/106 cells and 8.112 pmol/106 cells and 7.339 pmol/106 cells, the Enzyme activity [3, 8] was 7.477 pmol/106 cells and 10.4196 pmol/106 cells and 8.199 pmol/106 cells and 8.482 pmol/106 cells and the “Enzyme activity, Mean” value ([3]; PXB-cells (JFC)) was 0.160 pmol/min/106 cells. For the same compound, the Enzyme activity [3, 9] was 0.153 pmol/min/106 cells and 0.169 pmol/min/106 cells and 0.172 pmol/min/106 cells and 0.145 pmol/min/106 cells, the Enzyme activity [3, 10] was 10.0765 pmol/106 cells and 9.906 pmol/106 cells and 11.3983 pmol/106 cells and 9.755 pmol/106 cells and the Enzyme activity [3, 11] was 22.452 pmol/106 cells and 22.028 pmol/106 cells and 22.1618 pmol/106 cells and 20.005 pmol/106 cells. The Enzyme activity [3, 12] was 33.1164 pmol/106 cells and 28.7079 pmol/106 cells and 30.6951 pmol/106 cells and 27.4528 pmol/106 cells, the Enzyme activity [3, 13] was 42.0307 pmol/106 cells and 37.5801 pmol/106 cells and 42.224 pmol/106 cells and 33.7793 pmol/106 cells and the Enzyme activity [3, 14] was 67.3851 pmol/106 cells and 64.4144 pmol/106 cells and 55.8641 pmol/106 cells and 56.1231 pmol/106 cells. For the same compound, the “Enzyme activity, Mean” value ([3]; icHep (HUM18100B)) was 0.628 pmol/min/106 cells, the Enzyme activity [3, 15] was 0.710 pmol/min/106 cells and 0.598 pmol/min/106 cells and 0.673 pmol/min/106 cells and 0.530 pmol/min/106 cells and the Enzyme activity [3, 16] was 2.771 pmol/106 cells and 3.158 pmol/106 cells and 3.038 pmol/106 cells and 3.018 pmol/106 cells. For the same compound, the Enzyme activity [3, 17] was 4.046 pmol/106 cells and 4.392 pmol/106 cells and 5.788 pmol/106 cells and 6.302 pmol/106 cells, the Enzyme activity [3, 18] was 8.107 pmol/106 cells and 7.33 pmol/106 cells and 8.049 pmol/106 cells and 8.219 pmol/106 cells and the Enzyme activity [3, 19] was 8.619 pmol/106 cells and 8.336 pmol/106 cells and 6.8 pmol/106 cells and 10.6833 pmol/106 cells. For the same compound, the Enzyme activity [3, 20] was 10.5593 pmol/106 cells and 9.487 pmol/106 cells and 8.477 pmol/106 cells and 10.9673 pmol/106 cells, the “Enzyme activity, Mean” value ([3]; icHep (JFC)) was 0.164 pmol/min/106 cells and the Enzyme activity [3, 21] was 0.178 pmol/min/106 cells and 0.139 pmol/min/106 cells and 0.167 pmol/min/106 cells and 0.173 pmol/min/106 cells.

— publication PMC10444810, “Induction of open-form bile canaliculus formation by hepatocytes for evaluation of biliary drug excretion” (Communications Biology, 2023)
